Test results published in patent publication US20170216213A1, “DIRECTLY COMPRESSIBLE POLYVINYL ALCOHOLS” (Merck Patent GmbH, priority 2014, published 2017).

Experiment: Ascorbic acid in-vitro release test (USP Apparatus 2, paddle)
Format: physicochemical
Settings: from PVA/MCC matrix tablets (samples 1 and 2)
Experimental: 9. Ascorbic acid release test: The ascorbic acid-containing compressed tablets (from the compressions with a pressing force of 20 kN) are measured in a SOTAX (Allschwil, Switzerland) in-vitro release apparatus using the “Apparatus 2 (Paddle Apparatus)” described in USP 36 under <711> and under the conditions described therein for “Extended-release dosage forms” (USP=United States Pharmacopoeia). The sampling is carried out automatically via a hose pump system with subsequent measurement in an 8453 spectrometer (Agilent Technologies, USA) and a flow cell.
The averaged values are obtained from the release tests of in each case 6 ascorbic acid-containing tablets pressed with a pressing force of 20 kN.
Measurement Apparatuses and Measurement Parameters:
1. —Sotax AT7s release apparatus fitted with Apparatus 2 (Paddle Apparatus in accordance with USP 36) • Temperature: 37° C.+/−0.5° C. • Paddle speed: 100 rpm • Volume of release medium per measurement vessel: 900 ml • Tablet weight: 500 mg • Total run time of the measurement: 720 min. (with sampling after 15, 30, 45, 60, 120, 180, 240, 300, 360, 420, 480, 540, 600, 660, 720 min.)
2. —Hose pump for sampling: Sotax CY 7-50 (SOTAX, Switzerland)
3. —8453 spectrometer (Agilent Technologies, USA) • Measurement at 244 nm in a 2 mm flow measurement cell • Evaluation via Excel • Medium preparation: Dosa Prep X8 (DOSATEC GmbH, Germany) […]

O=C1O[C@H]([C@@H](O)CO)C(O)=C1O [ascorbic acid, L(+)-ascorbic acid]
Duration of retarded in-vitro release: over several hours
